Reference: patent US20230181503A1, “FEED ADDITIVE” (LUCTA, S.A., priority 2020, published 2023)

Tested on: IPEC-J2 cells (pig enterocytes)
Assay: Trans-epithelial electrical resistance (TEER) of IPEC-J2 monolayer
Type: cell-based
Conditions: formulations 50 μg/mL, genistein 50 μM
Description: Formulation C with HT:MA:OA at weight ratio 11:50:23 (50 μg/mL) and formulation D with HT:MA:OA at weight ratio 12:50:15 (50 μg/mL) were also tested on a cell line of pig enterocytes (IPEC-J2), at different conditions. IPEC-J2 cells were seeded into a permeable transwells membrane insert (6.5 mm diameter, 0.4 μm pore size, 0.33 cm2, polyester, Costar) at 1×10^5 cells/cm^2 to form a confluent monolayer within 4 days. Medium was replaced 48 h post-seeded and products were added on the apical side. On day 3 post-seeded, cells were treated with LPS (50 ng/mL) on the apical side and 24 h post-LPS stimulation epithelial cell integrity was assessed through the measurement of trans-epithelial electrical resistance (TEER) using a Millicell ERS-2 Voltohmmeter (Millipore, Billerica, Mass.). For each condition, triplicates were carried out in three independent experiments. At the end of incubation apical and basal media were eliminated and RNAlater solution (1 mL/well) was added to the cells for RNA stabilization and storage. Total RNA was extracted using RNA Mini Kit columns from Ambion (Life technologies, Carlsbad, Calif.) and stored at −80° C. for subsequent retrotranscription and quantitative RT-PCR. The extraction of total RNA was carried out using PureLink™ RNA Mini Kit according to the manufacturer's protocol. […]

Structure (SMILES): O=c1c(-c2ccc(O)cc2)coc2cc(O)cc(O)c12 [Genistein]
- TEER relative to DMSO control (IPEC-J2, + LPS 50 ng/mL, 24 h post-LPS, LPS alone = 61.7): 107%
- TEER relative to DMSO control (IPEC-J2, without LPS, Control (DMSO) = 100): 129%
